Data on two compounds can be found in US20250295609A1, “COMPOUND HAVING ANTI-ANDROGEN RECEPTOR ACTIVITY, AND USE THEREOF” (NANJING MINOVA PHARMACEUTICAL CO., LTD., priority 2022, published 2025).

Each structure is given as a SMILES string.

This assay addresses T1, AR protein expression in human prostate cancer cells LNCaP (Homo sapiens, UniProt P10275, T878A).
T1 sequence (P10275 1-920 T878A): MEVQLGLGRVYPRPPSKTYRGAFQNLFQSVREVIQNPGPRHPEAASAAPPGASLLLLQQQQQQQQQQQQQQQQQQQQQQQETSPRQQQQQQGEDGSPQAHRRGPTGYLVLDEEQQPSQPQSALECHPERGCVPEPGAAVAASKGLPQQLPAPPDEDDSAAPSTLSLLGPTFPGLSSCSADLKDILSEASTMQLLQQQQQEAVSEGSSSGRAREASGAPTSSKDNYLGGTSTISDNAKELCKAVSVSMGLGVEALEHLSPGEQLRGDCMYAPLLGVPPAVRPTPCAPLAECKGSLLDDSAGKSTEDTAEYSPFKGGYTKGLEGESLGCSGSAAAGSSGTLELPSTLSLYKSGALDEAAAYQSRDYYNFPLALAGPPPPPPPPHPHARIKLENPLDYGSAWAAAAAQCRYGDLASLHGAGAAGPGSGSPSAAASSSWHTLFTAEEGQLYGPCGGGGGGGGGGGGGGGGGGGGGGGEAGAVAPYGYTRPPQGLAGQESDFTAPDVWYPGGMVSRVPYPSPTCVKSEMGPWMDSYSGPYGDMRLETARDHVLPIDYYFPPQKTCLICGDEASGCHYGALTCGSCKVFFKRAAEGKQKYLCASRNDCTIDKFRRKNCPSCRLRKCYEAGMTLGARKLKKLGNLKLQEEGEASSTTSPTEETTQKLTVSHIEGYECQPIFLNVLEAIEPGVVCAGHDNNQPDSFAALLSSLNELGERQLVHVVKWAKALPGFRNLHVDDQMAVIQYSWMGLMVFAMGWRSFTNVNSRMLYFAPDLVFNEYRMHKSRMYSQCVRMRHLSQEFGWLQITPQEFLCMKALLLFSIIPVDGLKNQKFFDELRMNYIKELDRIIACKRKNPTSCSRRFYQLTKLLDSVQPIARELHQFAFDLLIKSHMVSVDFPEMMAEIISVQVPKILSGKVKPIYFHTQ
Nature of the assay: Reduction of AR protein expression in LNCaP cells (Western blot, with DHT). As to conditions: 1 nM DHT; for anti-AR activity (in words): Western blot; for AR reduction percentage / Relative potency (anti-AR activity): 48 h; for Relative potency (anti-AR activity): concentration basis not given. It is filed as cell-based. On the procedure: The term “anti-AR activity” refers to the ability of the compound of the present disclosure to reduce AR expression in human prostate cancer cells LNCaP, and the ability of the compound of the present disclosure to reduce AR expression is expressed in AR reduction percentage (%) herein. […] The AR reduction percentage (%) is calculated as follows: AR reduction percentage (%)=(AR in DHT group/GAPDH value−AR in test compound group/GAPDH value)/AR in DHT group/GAPDH value×100%.
AR is a key factor for regulating the response of prostate cancer cells to androgens. AR is also a key factor for the response of hair follicles or tissues around the hair follicles to androgens, and the reduction of the AR content not only can down-regulate the growth of the prostate cancer cells, but also can inhibit androgenetic alopecia. This test example is to test the effects of the compounds of the present disclosure on the reduction of AR protein expression in human prostate cancer cells LNCaP in the presence of DHT. The compounds of the present disclosure were analyzed for anti-AR activity in human prostate cancer cells LNCaP by measuring the reduction of AR protein using the Western blot method.
Human prostate cancer cells LNCaP were seeded in a 6-well plate at 4×10^5 cells/mL and at a volume of 2 mL per well. The plate was incubated overnight in a cell incubator. DMSO and dihydrotestosterone (DHT, 1 nM) were used as control groups. Assays were performed in the presence of dihydrotestosterone (DHT, 1 nM). After incubating with the test compounds for a specified time, the cells were collected and dissolved according to the Western blot technique known in the biochemical art. A DMSO group, a DHT group (1 nM) and test compound groups (containing 1 nM DHT) were set during the assay. DMSO and DHT (1 nM DHT) were added to 6-well plates corresponding to the DMSO group and the DHT group, respectively. […] The protein concentration was quantified using the BCA kit, and then the samples were stored for later use.
The content of the AR protein in each group was determined by using Western Blot, and the loading amount of the sample in each group was […]. Western blot analysis has been disclosed in the prior art. Specifically, the cells were collected in 2× sodium dodecyl sulfate/polyacrylamide gel electrophoresis loading buffer or in radioimmunoprecipitation assay (RIPA) buffer strengthened with 10 μg/mL benzamidine, 10 μg/mL trypsin inhibitor, and 1 mM phenylmethylsulfonyl fluoride. A sample of total protein (about 40 μg) from each cell lysate was separated by electrophoresis on an SDS/PAGE gel. After separation by electrophoresis, the proteins were transferred from the gel to a nitrocellulose membrane following the standard procedures. The membrane was then incubated with 10% non-fat milk in phosphate-buffered saline supplemented with 0.1% Tween 20 (PBST) for 1 h, followed by incubation with a primary human AR-specific antibody (purchased from BD-Harlingen) at 4° C. overnight. After incubation, the membrane was washed 3 times with PBST buffer, each for 10 mins. An alkaline phosphatase-conjugated secondary antibody was then added, and the membrane was incubated at room temperature for 1 h. After the secondary incubation, the membrane was washed again with PBST, and the AR protein signal in the membrane was visualized by adding an alkaline phosphatase medium, bromochloroindolyl phosphate, and nitrotetrazole to the membrane. To ensure that an equal amount of protein from each sample was analyzed, a portion of the membrane was kept with a specific antibody for the regulatory protein GAPDH (Santa Cruz Biotechnology), and the GAPDH signal was visualized with the secondary antibody described above. The protein signal intensity (as indicated by color bands on the membrane) was measured using a densitometer and analyzed by the NIH Image J software (NIH1.33).

In the case of `COc1ccc(/C=C/C(=O)C2(C(=O)/C=C/c3ccc(OC)c(OC)c3)CCC(=O)CC2)cc1OC` [Compound 7], the “anti-AR activity (in words)” value is “significant anti-AR activities” and the “Relative potency (anti-AR activity)” value is listed as “+++++ (62.5 < * ≤ 75)”. For the same compound, under “2.5 μmol/L compound”, the AR reduction percentage is given as 0%. The compound also showed an AR reduction percentage (5 μmol/L compound) of 67.3%. This compound displayed an AR reduction percentage (10 μmol/L compound) of 95.6%.
Take `COc1ccc(/C=C/C(=O)C2(C(=O)/C=C/c3ccc(OC)c(OC)c3)CCC(F)(F)CC2)cc1OC` [Compound 8]: the “anti-AR activity (in words)” value is recorded as “significant anti-AR activities” and the “Relative potency (anti-AR activity)” value was “++++++ (75 < * ≤ 100)”. Under “2.5 μmol/L compound”, this compound gave an AR reduction percentage of 57.5%. For the same compound, under “5 μmol/L compound”, the AR reduction percentage worked out at 87.3%. This compound yielded an AR reduction percentage (10 μmol/L compound) of 92.2%.
